# Assays:
# DAF-16 = test: Semi-quantitative RT-PCR of DAF-16 transcripts in C. elegans; type: in vivo; details: day 2 after treatment; acetic acid 50 ppm, extracts 100 ppm; normalised to ACT-1
# Experimental: (§1) RNA preparation and reverse transcriptase-PCR(RT-PCR). Total RNA from batches of C. elegans were isolated from samples in the NGM medium at appropriate time intervals using an RNeasy mini kit (Qiagen). Subsequently, RNA (500 ng) from each sample was reverse-transcribed and PCR was performed using a Superscript One-step RT-PCR kit (Invitrogen). […] PCR products were run on 1.8% agarose gel and stained with 0.4 μg/ml ethidium bromide. Stained bands were visualized under UV light and photographed with a camera (Nikon […]).
# [1] = system: RAB-1 and PMK-1 (MAPK pathway); test: RT-PCR of RAB-1 and PMK-1 transcripts (MAPK pathway) in C. elegans; details: in vivo transcription after treatment; RF3 100 ppm, 2 days
# Experimental: as §1
# [2] = system: wild-type C. elegans (N2); test: Lifespan analysis of C. elegans after treatment with test substances; type: in vivo; details: acetic acid and vitamins 50 ppm, RF3 and mushroom polysaccharide fractions 100 ppm (FIG. 1); 20° C.; versus water control
# Source text: Strains, bacteria, natural products and chemicals. The wild-type N2 strain of C. elegans were used in all experiments. The worms were maintained and cultured on nematode growth medium (NGM) agar plates or in liquid medium with E. coli OP50 as a food source. […] Contaminating food and worm debris were removed by sucrose floatation. In addition to OP50, two E. coli strains for RNAi were used (III-1N20 for TIR-1 RNAi and I-5M24 for DAF-16 RNAi). RF3, crude mycelium-powders of A. camphorate and H. erinaceus were prepared as described in previous papers. Each solution was diluted with deionized water to make test solutions of desired concentrations for various assays. Lifespan analysis after treatment with various substances.
smiles,measurement,setting,value
"CC(=O)O [Acetic acid, acetic acid]",DAF-16 expression,DAF-16,significant increase
same,MAPK pathway activation (RAB-1 and PMK-1 transcription levels),[1],apparently not involved
same,lifespan-extending effect on C. elegans,[2],showed lifespan-extending effect

# From patent US20090280062A1, “LONGEVITY-PROMOTING EFFECTS OF ACETIC ACID AND REISHI POLYSACCHARIDE” (priority 2008, published 2009)
